Measurements published in patent US11959086B2, “Dual transit peptides for targeting polypeptides” (BASF AGRO B.V., priority 2016, dated 2024).

What was measured:
Test in all cases: Herbicide injury evaluation of Arabidopsis plants, greenhouse
Type in all cases: in vivo
[1] = test system: transgenic Arabidopsis thaliana, transgene SEQ ID NO 121; conditions: Table 3, scale 0-100
[2] = test system: transgenic Arabidopsis thaliana, transgene SEQ ID NO 120; conditions: Table 4, scale 0-100
[3] = test system: Wildtype/non-transgenic Arabidopsis thaliana; conditions: scale 0-100
[4] = test system: transgenic Arabidopsis thaliana, transgene SEQ ID NO 118; conditions: scale 0-100
[5] = test system: transgenic Arabidopsis thaliana, transgene SEQ ID NO 128; conditions: Table 3, scale 0-100
[6] = test system: transgenic Arabidopsis thaliana, transgene SEQ ID NO 117; conditions: Table 3, scale 0-100

C#CCN1C(=O)COc2cc(F)c(N3C(=O)C4=C(CCCC4)C3=O)cc21 [Flumioxazin, flumioxazin]
Herbicide injury evaluation 14 days after herbicide treatment ([1]; SEQ ID NO 121 G, 140 g ai/ha + 1% MSO): 100
Herbicide injury evaluation 14 days after herbicide treatment ([1]; SEQ ID NO 121 G, 280 g ai/ha + 1% MSO): 100
Herbicide injury evaluation 14 days after herbicide treatment ([1]; SEQ ID NO 121 G, 420 g ai/ha + 1% MSO): 100
Herbicide injury evaluation 14 days after herbicide treatment ([1]; SEQ ID NO 121 H, 140 g ai/ha + 1% MSO): 100
Herbicide injury evaluation 14 days after herbicide treatment ([1]; SEQ ID NO 121 H, 280 g ai/ha + 1% MSO): 100
Herbicide injury evaluation 14 days after herbicide treatment ([1]; SEQ ID NO 121 H, 420 g ai/ha + 1% MSO): 100
Herbicide injury evaluation 14 days after herbicide treatment ([2]; SEQ ID NO 120 J, 140 g ai/ha + 1% MSO): 95
Herbicide injury evaluation 14 days after herbicide treatment ([2]; SEQ ID NO 120 J, 280 g ai/ha + 1% MSO): 85
Herbicide injury evaluation 14 days after herbicide treatment ([2]; SEQ ID NO 120 J, 420 g ai/ha + 1% MSO): 95
Herbicide injury evaluation 14 days after herbicide treatment ([2]; SEQ ID NO 120 M, 140 g ai/ha + 1% MSO): 75
Herbicide injury evaluation 14 days after herbicide treatment ([2]; SEQ ID NO 120 M, 280 g ai/ha + 1% MSO): 98
Herbicide injury evaluation 14 days after herbicide treatment ([2]; SEQ ID NO 120 M, 420 g ai/ha + 1% MSO): 98
Herbicide injury evaluation 14 days after herbicide treatment ([3]; Table 3, 140 g ai/ha + 1% MSO): 100
Herbicide injury evaluation 14 days after herbicide treatment ([3]; Table 3, 280 g ai/ha + 1% MSO): 100
Herbicide injury evaluation 14 days after herbicide treatment ([3]; Table 3, 420 g ai/ha + 1% MSO): 100
Herbicide injury evaluation 14 days after herbicide treatment ([3]; Table 4, 140 g ai/ha + 1% MSO): 100
Herbicide injury evaluation 14 days after herbicide treatment ([3]; Table 4, 280 g ai/ha + 1% MSO): 100
Herbicide injury evaluation 14 days after herbicide treatment ([3]; Table 4, 420 g ai/ha + 1% MSO): 100
Herbicide injury evaluation 14 days after herbicide treatment ([4]; Table 3, SEQ ID NO 118 Q, 140 g ai/ha + 1% MSO): 48
Herbicide injury evaluation 14 days after herbicide treatment ([4]; Table 3, SEQ ID NO 118 Q, 280 g ai/ha + 1% MSO): 60
Herbicide injury evaluation 14 days after herbicide treatment ([4]; Table 3, SEQ ID NO 118 Q, 420 g ai/ha + 1% MSO): 60
Herbicide injury evaluation 14 days after herbicide treatment ([4]; Table 3, SEQ ID NO 118 R, 140 g ai/ha + 1% MSO): 23
Herbicide injury evaluation 14 days after herbicide treatment ([4]; Table 3, SEQ ID NO 118 R, 280 g ai/ha + 1% MSO): 28
Herbicide injury evaluation 14 days after herbicide treatment ([4]; Table 3, SEQ ID NO 118 R, 420 g ai/ha + 1% MSO): 28
Herbicide injury evaluation 14 days after herbicide treatment ([4]; Table 4, SEQ ID NO 118 Q, 140 g ai/ha + 1% MSO): 60
Herbicide injury evaluation 14 days after herbicide treatment ([4]; Table 4, SEQ ID NO 118 Q, 280 g ai/ha + 1% MSO): 65
Herbicide injury evaluation 14 days after herbicide treatment ([4]; Table 4, SEQ ID NO 118 Q, 420 g ai/ha + 1% MSO): 70
Herbicide injury evaluation 14 days after herbicide treatment ([4]; Table 4, SEQ ID NO 118 R, 140 g ai/ha + 1% MSO): 63
Herbicide injury evaluation 14 days after herbicide treatment ([4]; Table 4, SEQ ID NO 118 R, 280 g ai/ha + 1% MSO): 60
Herbicide injury evaluation 14 days after herbicide treatment ([4]; Table 4, SEQ ID NO 118 R, 420 g ai/ha + 1% MSO): 35
Herbicide injury evaluation 14 days after herbicide treatment ([5]; SEQ ID NO 128 D, 140 g ai/ha + 1% MSO): 100
Herbicide injury evaluation 14 days after herbicide treatment ([5]; SEQ ID NO 128 D, 280 g ai/ha + 1% MSO): 94
Herbicide injury evaluation 14 days after herbicide treatment ([5]; SEQ ID NO 128 D, 420 g ai/ha + 1% MSO): 93
Herbicide injury evaluation 14 days after herbicide treatment ([5]; SEQ ID NO 128 E, 140 g ai/ha + 1% MSO): 93
Herbicide injury evaluation 14 days after herbicide treatment ([5]; SEQ ID NO 128 E, 280 g ai/ha + 1% MSO): 99
Herbicide injury evaluation 14 days after herbicide treatment ([5]; SEQ ID NO 128 E, 420 g ai/ha + 1% MSO): 100
Herbicide injury evaluation 14 days after herbicide treatment ([6]; SEQ ID NO 117 C, 140 g ai/ha + 1% MSO): 94
Herbicide injury evaluation 14 days after herbicide treatment ([6]; SEQ ID NO 117 C, 280 g ai/ha + 1% MSO): 95
Herbicide injury evaluation 14 days after herbicide treatment ([6]; SEQ ID NO 117 C, 420 g ai/ha + 1% MSO): 95
Herbicide injury evaluation 14 days after herbicide treatment ([6]; SEQ ID NO 117 I, 140 g ai/ha + 1% MSO): 90
Herbicide injury evaluation 14 days after herbicide treatment ([6]; SEQ ID NO 117 I, 280 g ai/ha + 1% MSO): 94
Herbicide injury evaluation 14 days after herbicide treatment ([6]; SEQ ID NO 117 I, 420 g ai/ha + 1% MSO): 97
